Data published in patent publication US20220095648A1, “USE OF A THRAUSTOCHYTRID BIOMASS FOR MAINTAINING GUT BARRIER FUNCTION” (priority 2019, published 2022).

Tested on: Caco-2 cells
Assay: Nutrient uptake by Caco-2 cells exposed to DON (overall conclusion)
Assay type: cell-based
Conditions: DON at 10 μM
Experimental: In order to test the ability of microalgae to reduce/prevent the effect of DON on nutrient absorption through epithelial cells, Caco-2 cells were exposed to a metabolically active dose of DON, in the absence or presence of Aurantiochytrium mangrovei FCC1325 microalgae (lyophilized microalgae “ML”, or digested lyophilized microalgae “MLD”), at a dose of 1% or 5%. […]
Briefly, Caco-2 cells were cultured and seeded onto 12-well inserts, as described in Example 1, and then let to differentiate for 16-21 days post-seeding before being used, with medium changes every two days. […] Caco-2 cells were incubated for 12, 24 or 48 hours before nutrient uptake was measured. […]
After an equilibration period of 15 min at 37° C., uptake assay was initiated by the addition of D-Glc, L-Lysine, L-Methionine or L-Threonine diluted in the appropriate Ringer Hepes buffer (400 μl) and added apically onto Caco-2 inserts (final concentration of 100 μM of D-Glc and 400 μM for amino-acids), the basolateral compartment being filled with 400 μl of buffer. […] After 15 minutes incubation, 30 μl of media were collected from apical or basolateral compartments and stored at −20° C. until nutrient quantification. Residual concentrations of D-Glc or L-amino acid present in the apical compartments were measured using enzyme-based quantification assay kits (Glucose Colorimetric/Fluorometric Assay Kit, Sigma-Aldrich). […]

CC1=C[C@H]2O[C@@H]3[C@H](O)C[C@](C)([C@@]2(CO)[C@H](O)C1=O)[C@]31CO1 [DON, Deoxynivalenol]
effect of DON on intestinal nutrient uptake: alters intestinal nutrient uptake
